Structures are written as SMILES.

The source of these data is PMC11328603 (Journal of Enzyme Inhibition and Medicinal Chemistry, 2024).

This experiment has as its target Escherichia coli β-glucuronidase (EcGUS) (Escherichia coli, UniProt P05804). Put plainly: PNPG hydrolysis assay, Lineweaver-Burk kinetics. It counts as biochemical.

Sequence of Escherichia coli β-glucuronidase (EcGUS) (P05804 whole entry): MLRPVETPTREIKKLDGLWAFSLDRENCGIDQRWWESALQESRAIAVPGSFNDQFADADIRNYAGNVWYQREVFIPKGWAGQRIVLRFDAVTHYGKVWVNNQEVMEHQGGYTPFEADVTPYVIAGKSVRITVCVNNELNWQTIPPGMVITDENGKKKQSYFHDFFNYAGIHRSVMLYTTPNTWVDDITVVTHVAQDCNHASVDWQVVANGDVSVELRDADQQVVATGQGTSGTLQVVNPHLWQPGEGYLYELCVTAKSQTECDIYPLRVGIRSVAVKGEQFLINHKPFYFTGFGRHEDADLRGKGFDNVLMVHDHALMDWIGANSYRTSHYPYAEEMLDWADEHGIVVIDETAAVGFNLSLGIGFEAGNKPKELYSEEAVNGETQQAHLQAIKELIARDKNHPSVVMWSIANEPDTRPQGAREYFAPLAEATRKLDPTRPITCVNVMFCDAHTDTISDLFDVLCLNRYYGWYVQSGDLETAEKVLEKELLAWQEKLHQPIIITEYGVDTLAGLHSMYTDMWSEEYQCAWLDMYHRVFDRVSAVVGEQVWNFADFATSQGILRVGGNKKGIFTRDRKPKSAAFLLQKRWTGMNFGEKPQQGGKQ

On to `Clc1ccc2c(c1)C(N1CCNCC1)=Nc1ccccc1O2` [AMX, amoxapine], for which the “PNPG hydrolysis assay, Lineweaver-Burk kinetics” value was “both AMX and E-9 acted as uncompetitive inhibitors against EcGUS”.
